# Data reported in paper PMC9399588, “Effect of fluconazole on the pharmacokinetics of a single dose of fedratinib in healthy adults” (Cancer Chemotherapy and Pharmacology, 2022).
# “And” between values parts separate entries of the source, which are not always exact repeats. Identical values can stand only once. Like-named read-outs stand apart in the source and are kept apart here.
# How the values were obtained:
# [1] = design: method as in PMID 32748109; conditions: healthy adult men, oral dose of [14C]-fedratinib 200 mg; cited from earlier work
# CYP2C19 (liver) = test system: CYP2C19 (liver); design: method as in PMID 32886148; conditions: after first dose of 400 mg once-daily fedratinib, healthy participants; cited from earlier work
# [2] = design: method as in PMID 34019108; conditions: healthy adults; cited from earlier work
# CYP3A4 (liver) = test system: CYP3A4 (liver); design: method as in PMID 32886148; conditions: after first dose of 400 mg once-daily fedratinib, healthy participants; cited from earlier work
# [3] = cited from earlier work
# [4] = design: method as in PMID 32886148; conditions: PBPK simulations; cited from earlier work
# [5] = Phase 1 fixed-sequence drug-drug interaction study: plasma pharmacokinetics of single-dose fedratinib with and without fluconazole; assay type: in vivo, human; conditions: for Vd/F: read-out: Vz/F, geometric mean (geometric CV%); for half-life: read-out: t1/2 (terminal elimination), geometric mean (geometric CV%) (converted)
# Description: This was an open-label Phase 1 study to evaluate the effect of multiple doses of fluconazole on the PK, safety, and tolerability of a single dose of fedratinib in healthy adult participants (NCT04702464). Healthy men and women aged 18–65 years with body mass index (BMI) ≥ 18 and ≤ 33 kg/m^2 at screening were enrolled at one site in the USA. Participants were confirmed to be healthy based on medical history, physical examination, clinical laboratory test results, vital signs, and 12-lead electrocardiogram (ECG) at screening and check-in (day − 1). Aspartate aminotransferase, alanine aminotransferase, and total bilirubin must have been at or below the upper limit of the reference range on or before check-in (day − 1). Other clinical parameters and laboratory results were either within normal range or deemed not clinically significant by the investigator. Women of childbearing potential were required to have a negative pregnancy test result and to use birth control.
# This was a non-randomized, fixed-sequence, open-label study consisting of a screening phase, treatment phase (including baseline), and follow-up telephone call (Fig. 1). The fixed-sequence crossover design of this study was selected to remove intersubject variability from comparison between treatments. Healthy participants were chosen to mitigate the potential confounding effects of disease state or other concomitant medications likely to be present in a population of patients with myelofibrosis.
# Participants resided at the clinical site from day − 1 to day 27. A single oral dose of fedratinib 100 mg was administered under fasted conditions on day 1. Participants received fluconazole 400 mg on day 10 and fluconazole 200 mg once daily on days 11–23. On day 18, participants received a single oral dose of fedratinib 100 mg, under fasted conditions, with fluconazole 200 mg. No food or beverages (except water) were allowed for at least 4 h after dosing; water was allowed as desired except for 1 h before and 1 h after each dose. Participants received ondansetron 8 mg by mouth approximately 1 h before each fedratinib administration to reduce the potential for fedratinib-related nausea and vomiting, with the option of a subsequent oral dose(s) of ondansetron as necessary. Fluconazole is not expected to have a clinically meaningful impact on the PK of ondansetron as ondansetron is metabolized by multiple enzymes including CYP1A1/2, CYP3A4, and CYP2D6 [28]. […] Participants were discharged from the clinical site on day 27 and received a follow-up telephone call 4 days (± 2 days) after discharge. In the event that participants discontinued the study for any reason, an early termination (ET) visit was performed. Only safety assessments scheduled for the day of discharge were performed at the ET visit. Participants who discontinued the study also received a follow-up telephone call 4 days (± 2 days) after discharge. Participants who discontinued the study due to inclement weather returned to the clinic to complete the ET visit at a later date.
# On days 1 and 18, blood samples for determination of fedratinib plasma concentrations were collected before each dose and 0.5, 1, 1.5, 2, 3, 4, 6, 8, 12, 24, 48, 72, 120, 168, and 216 h post-dose. Plasma fedratinib concentrations were measured using a validated liquid chromatography–tandem mass spectrometry assay with a lower limit of quantification (LLOQ) of 1.00 ng/mL [19].
# Plasma PK parameters were calculated using noncompartmental methods. The PK parameters determined for fedratinib were maximum observed plasma concentration (Cmax), time to Cmax (Tmax), AUC from time 0 to the time of the last quantifiable concentration (AUC0–t), AUC from time 0 to infinity (AUC0–∞), terminal elimination t1/2, apparent total plasma clearance (CL/F), and apparent total volume of distribution during the terminal phase (Vz/F). […]
# myelofibrosis = test system: myelofibrosis; design: method as in PMID 34331348; conditions: double-blind Phase 3, NCT01437787; cited from earlier work
# CYP3A4 = test system: CYP3A4; design: method as in PMID 32886148; conditions: 0.1 μM fedratinib, different hepatocyte preparations; cited from earlier work
# [6] = in vivo; cited from earlier work
# [7] = design: method as in PMID 32248324; conditions: cited from earlier work
# [8] = Safety and tolerability assessment (adverse event monitoring) in the Phase 1 study; assay type: in vivo, human
# Method: Safety assessments included adverse event (AE) monitoring, review of concomitant medications and procedures, physical examinations, vital signs measurements, 12-lead ECGs, and clinical laboratory safety tests. All AEs were recorded from the time of informed consent until study completion, and up to 30 days after the last dose of fluconazole if reported to the investigator.
# [9] = design: method as in PMID 12867217; conditions: cited from earlier work
# [10] = design: method as in PMID 31324935; conditions: cited from earlier work
# [11] = compared with fedratinib alone, single oral dose 100 mg
# [12] = fedratinib 100 mg + fluconazole 200 mg once daily (test) vs fedratinib 100 mg (reference)
# [13] = healthy men, single dose fedratinib 300 mg with ketoconazole vs alone
smiles,measurement,setting,value
Cc1cnc(Nc2ccc(OCCN3CCCC3)cc2)nc1Nc1cccc(S(=O)(=O)NC(C)(C)C)c1 [fedratinib],Share of total circulating drug in plasma accounted for by fedratinib,[1],approximately 80%
same,Mean fraction of metabolism or excretion in relation to systemic clearance,CYP2C19 (liver),16%
same,Effect of CYP3A4 inducers rifampin and efavirenz on fedratinib exposure,[2],decrease fedratinib exposure
same,Mean fraction of metabolism or excretion in relation to systemic clearance,CYP3A4 (liver),64%
same,Effective t1/2,[3],around 40 h
same,Terminal elimination half-life (t1/2),[3],around 114 h
same,Effective t1/2,[3]; healthy participants and patients with myelofibrosis,~ 40 h
same,Predicted increase in fedratinib exposure on coadministration of fluconazole (dual CYP2C19 and CYP3A4 inhibitor) vs fedratinib alone,[4],up to a fourfold increase
same,Tmax median difference between fedratinib with fluconazole and fedratinib alone,"[5]; Hodges–Lehmann estimate, 90% CI 0.00–1.00, p = 0.156",30 min
same,AUC(0-inf),"[5]; both sexes, human, plasma, oral, 100 mg fedratinib + 200 mg fluconazole once daily (test), n = 5, read-out: AUC0–∞, geometric mean from ANOVA model",4100 ng·h/mL
same,AUC(0-inf),"[5]; both sexes, human, plasma, oral, 100 mg, 100 mg fedratinib (reference), n = 7, read-out: AUC0–∞, geometric mean from ANOVA model",2410 ng·h/mL
same,AUC(0-t),"[5]; both sexes, human, plasma, oral, 100 mg fedratinib (reference), n = 16, read-out: AUC0–t, geometric mean from ANOVA model",1900 ng·h/mL
same,Cmax,"[5]; both sexes, human, plasma, oral, 100 mg fedratinib (reference), n = 16, read-out: Cmax, geometric mean from ANOVA model",121 ng/mL
same,Cmax,"[5]; both sexes, human, plasma, oral, 100 mg fedratinib + 200 mg fluconazole once daily (test), n = 16, read-out: Cmax, geometric mean from ANOVA model",146 ng/mL
same,AUC(0-inf),"[5]; both sexes, human, plasma, oral, fedratinib 100 mg + fluconazole 200 mg once daily, n = 5, read-out: AUC0–∞, geometric mean (geometric CV%)",4200 ng·h/mL
same,Vd/F,"[5]; both sexes, human, plasma, oral, fedratinib 100 mg + fluconazole 200 mg once daily, n = 5",3560 L
same,AUC(0-t),"[5]; both sexes, human, plasma, oral, fedratinib 100 mg + fluconazole 200 mg once daily, n = 16, read-out: AUC0–t, geometric mean (geometric CV%)",2970 ng·h/mL
same,half-life,"[5]; both sexes, human, plasma, oral, fedratinib 100 mg + fluconazole 200 mg once daily, n = 16",5.75 days
same,AUC(0-inf),"[5]; both sexes, human, plasma, po, 100 mg, fedratinib 100 mg single oral dose alone, n = 7, read-out: AUC0–∞, geometric mean (geometric CV%)",2360 ng·h/mL
same,Cmax,"[5]; both sexes, human, plasma, fedratinib 100 mg single oral dose + fluconazole 200 mg once daily, healthy adults, n = 16, read-out: Cmax, geometric mean (geometric CV%)",146 ng/mL
same,Cmax,"[5]; both sexes, human, plasma, fedratinib 100 mg single oral dose alone, fasted, healthy adults, n = 16, read-out: Cmax, geometric mean (geometric CV%)",121 ng/mL
same,Vd/F,"[5]; both sexes, human, plasma, fedratinib 100 mg single oral dose alone, n = 7",6500 L
same,AUC(0-t),"[5]; both sexes, human, plasma, fedratinib 100 mg single oral dose alone, n = 16, read-out: AUC0–t, geometric mean (geometric CV%)",1900 ng·h/mL
same,Tmax,"[5]; both sexes, human, plasma, fedratinib 100 mg single oral dose alone, n = 16, read-out: Tmax, median (min, max)",2 h
same,half-life,"[5]; both sexes, human, plasma, fedratinib 100 mg single oral dose alone, n = 16",5.21 days
same,Increase in fedratinib AUC0–t on coadministration with fluconazole,[5]; [11],56%
same,Increase in fedratinib Cmax on coadministration with fluconazole,[5]; [11],21%
same,"AUC0–t: ratio (%) of geometric LS means, test/reference (90% CI)",[5]; [12],"156% and 156 (145, 168) %"
same,"Cmax: ratio (%) of geometric LS means, test/reference (90% CI)",[5]; [12],"121% and 121 (108, 135) %"
same,"AUC0–∞: ratio (%) of geometric LS means, test/reference (90% CI)","[5]; fedratinib 100 mg + fluconazole 200 mg once daily (test, n = 5) vs fedratinib 100 mg (reference, n = 7)","170 (143, 202) %"
same,"CL/F, geometric mean (geometric CV%)","[5]; fedratinib 100 mg + fluconazole 200 mg once daily, n = 5",23.8 (40.2) L/h
same,"Tmax, median (min, max)","[5]; fedratinib 100 mg + fluconazole 200 mg once daily, n = 16","2.00 (1.02, 6.00) h"
same,"CL/F, geometric mean (geometric CV%)","[5]; fedratinib 100 mg single oral dose alone, n = 7",42.3 (21.9) L/h
same,Difference in terminal t1/2 of fedratinib alone vs in combination with fluconazole,[5]; in vivo,no significant difference
same,Increase in fedratinib exposure by fluconazole (in words),[5]; observed in this study,less than twofold increase
same,Increase in systemic exposure to fedratinib on coadministration with fluconazole,"[5]; single oral dose, compared with fedratinib alone",up to 56%
same,Proportion of patients reaching primary (≥ 35% reduction in spleen volume) and secondary (≥ 50% reduction in symptom score) endpoints vs placebo,myelofibrosis,greater proportion
same,CYP3A4 share of the total CYP contribution to metabolism,CYP3A4,0–67%
same,Tolerability of single doses,[6],generally well tolerated
same,Effect of ketoconazole coadministration on fedratinib Tmax,[7],no effect on Tmax
same,Increase in fedratinib AUC0–t by ketoconazole,[7]; [13],3.20 fold
same,Increase in fedratinib Cmax by ketoconazole,[7]; [13],1.93 fold
same,Participants with treatment-emergent adverse events (TEAEs),"[8]; during treatment with fedratinib 100 mg alone, 3 participants",10.3%
same,Participants with treatment-emergent adverse events (TEAEs),"[8]; during treatment with fedratinib 100 mg plus fluconazole 200 mg, 1 participant",6.3%
same,Tolerability of single oral doses,"[8]; fedratinib 100 mg with or without fluconazole, healthy adults",well tolerated
OC(Cn1cncn1)(Cn1cncn1)c1ccc(F)cc1F [fluconazole],Participants with treatment-emergent adverse events (TEAEs),"[8]; during treatment with fluconazole 200 mg alone, 2 participants",7.4%
Cc1nccn1CC1CCc2c(c3ccccc3n2C)C1=O (stereo not drawn) [ondansetron],Change in AUC on coadministration with the moderate CYP3A inhibitor aprepitant,[9],no clinically significant change
N#CC[C@H](C1CCCC1)n1cc(-c2ncnc3[nH]ccc23)cn1 [ruxolitinib],Increase in exposure on coadministration with fluconazole,[10],234%
